Measured values: US12173018B2, “Penicillin-binding protein inhibitors” (priority 2018, dated 2024)
Values after ≈ are worked out from the molar mass of the structure shown.

Legend:
Format in all cases: cell-based
A. baumannii ATCC 19606 = experiment: Broth microdilution MIC, A. baumannii ATCC 19606; conditions: Acinetobacter baumannii, ATCC19606; A. baumannii ATCC 19606, broth microdilution; read-out: MIC A. baumannii ATCC 19606
Outline: (§1)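 Strains are tested by standard CLSI broth microdilution. Log-phase cells, diluted by OD600 to 5×10^5 CFU/mL, meet 2-fold compound series and incubate 16-20 hours at 37° C before the lowest growth-free concentration is recorded.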

N. gonorrhoeae FA1090 = experiment: Liquid broth MIC, N. gonorrhoeae FA1090; conditions: Neisseria gonorrhoeae; N. gonorrhoeae FA1090, liquid broth; read-out: Minimum Inhibitory Concentration, N. gonorrhoeae FA1090
Outline: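 Growth inhibition was scored by eye as the lowest compound concentration free of bacterial growth. Cultures from Kellogg's-supplemented GC agar, diluted to 5×10^5 CFU/mL, were exposed to serially diluted compound for 40-42 h at 36° C under 5% CO2.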

K. pneumoniae SI-117 = experiment: microbe, parasite or virus in culture; conditions: Klebsiella pneumoniae, SI117, read-out: MIC K. pneumoniae SI-117
Outline: as §1

[1] = tested on: P. aeruginosa (ΔmexAB-oprM); experiment: microbe, parasite or virus in culture; conditions: Pseudomonas aeruginosa, read-out: MIC P. aeruginosa ΔmexAB-OprM
Outline: as §1

E. coli AG100A = experiment: microbe, parasite or virus in culture; conditions: Escherichia coli, read-out: MIC E. coli AG100A
Outline: as §1

E. coli D22 = experiment: microbe, parasite or virus in culture; conditions: Escherichia coli; hyper-permeable E. coli D22, broth microdilution; read-out: MIC E. coli D22
Outline: as §1

P. aeruginosa ATCC 35151 = experiment: microbe, parasite or virus in culture; conditions: Pseudomonas aeruginosa, ATCC35151; hyper-permeable P. aeruginosa ATCC 35151; read-out: MIC P. aeruginosa ATCC 35151
Outline: as §1

K. pneumoniae UMM = experiment: microbe, parasite or virus in culture; conditions: Klebsiella pneumoniae; K. pneumoniae UMM producing SHV-5 and KPC-2; read-out: MIC K. pneumoniae UMM
Outline: as §1

E. coli 901C = experiment: microbe, parasite or virus in culture; conditions: Escherichia coli; hyper-permeable E. coli 901C, broth microdilution; read-out: MIC E. coli 901C
Outline: as §1

E. coli ATCC 25922 = experiment: Broth microdilution MIC, E. coli ATCC 25922; conditions: Escherichia coli, ATCC25922; E. coli ATCC 25922, broth microdilution; read-out: MIC E. coli 25922
Outline: as §1

P. aeruginosa PAO1 = experiment: Broth microdilution MIC, P. aeruginosa PAO1; conditions: Pseudomonas aeruginosa; P. aeruginosa PAO1, broth microdilution; read-out: MIC P. aeruginosa PAO1
Outline: as §1

SMILES	MIC (A. baumannii ATCC 19606) [µg/mL]	MIC (N. gonorrhoeae FA1090) [µg/mL]	MIC (K. pneumoniae SI-117) [µg/mL]	MIC [1] [µg/mL]	MIC (E. coli AG100A) [µg/mL]	MIC (E. coli D22) [µg/mL]	MIC (P. aeruginosa ATCC 35151) [µg/mL]	MIC (K. pneumoniae UMM) [µg/mL]	MIC (E. coli 901C) [µg/mL]	MIC (E. coli ATCC 25922) [µg/mL]	MIC (P. aeruginosa PAO1) [µg/mL]
CCCN1CCN(C(=O)NC(C(=O)N[C@H]2Cc3ccc(F)c(C(=O)O)c3OB2O)c2ccc(O)c(O)c2Cl)C(=O)C1=O (some centres unmarked) [Example 125]	< 0.25	1 to 2 (≈ 1.65 to 3.3 µM)	2 to 4	< 0.25	2 to 4	0.5 to 1	< 0.25	32 to 64	0.5 to 1	2 to 4	0.5 to 1
O=C(O)c1c(F)ccc2c1OB(O)[C@@H](NC(=O)C(NC(=O)N1CCN(CCF)C(=O)C1=O)c1ccc(O)c(O)c1Cl)C2 (some centres unmarked) [Example 131]	8 to 16	0.25 to 0.5 (≈ 0.409 to 0.819 µM)	8 to 16	< 0.25	2 to 4	2 to 4	< 0.25	8 to 16	0.5 to 1	2 to 4	0.5 to 1
CCN1CCN(C(=O)NC(C(=O)N[C@H]2Cc3ccc(F)c(C(=O)O)c3OB2O)c2cc(O)c(O)cc2F)C(=O)C1=O (stereo partly drawn) [Example 136, (3R)-3-(2-(4-ethyl-2,3-dioxopiperazine-1-carboxamido)-2-(2-fluoro-4,5-dihydroxyphenyl)acetamido)-7-fluoro-2-hydroxy-3,4-dihydro-2H-benzo[e][1,2]oxaborinine-8-carboxylic acid]	2 to 4	1 to 2 (≈ 1.74 to 3.47 µM)	> 128	0.5 to 1	2 to 4	2 to 4	0.5 to 1	8 to 16	0.5 to 1	8 to 16	8 to 16
CCN1CCN(C(=O)NC(C(=O)N[C@H]2Cc3ccc(F)c(C(=O)O)c3OB2O)c2ncc(O)cc2F)C(=O)C1=O (stereo partly drawn) [Example 145, (3R)-3-(2-(4-ethyl-2,3-dioxopiperazine-1-carboxamido)-2-(3-fluoro-5-hydroxypyridin-2-yl)acetamido)-7-fluoro-2-hydroxy-3,4-dihydro-2H-benzo[e][1,2]oxaborinine-8-carboxylic acid]	> 128	< 0.125	32 to 64	8 to 16	2 to 4	2 to 4	8 to 16	8 to 16	0.5 to 1	8 to 16	> 128
CCN1CCN(C(=O)NC(C(=O)N[C@H]2Cc3ccc(F)c(C(=O)O)c3OB2O)c2ccc(O)c(O)c2F)C(=O)C1=O (stereo partly drawn) [Example 149, (3R)-3-(2-(4-ethyl-2,3-dioxopiperazine-1-carboxamido)-2-(2-fluoro-3,4-dihydroxyphenyl)acetamido)-7-fluoro-2-hydroxy-3,4-dihydro-2H-benzo[e][1,2]oxaborinine-8-carboxylic acid]	8 to 16	0.25 to 0.5 (≈ 0.434 to 0.868 µM)	2 to 4	< 0.25	0.5 to 1	2 to 4	< 0.25	2 to 4	0.5 to 1	8 to 16	2 to 4
CCN1CCN(C(=O)NC(C(=O)N[C@H]2Cc3cccc(C(=O)O)c3OB2O)c2ncc(O)cc2Cl)C(=O)C1=O (stereo partly drawn) [Example 150, (3R)-3-(2-(4-ethyl-2,3-dioxopiperazine-1-carboxamido)-2-(3-chloro-5-hydroxypyridin-2-yl)acetamido)-2-hydroxy-3,4-dihydro-2H-benzo[e][1,2]oxaborinine-8-carboxylic acid]	> 128	0.25 to 0.5 (≈ 0.447 to 0.893 µM)	> 128	32 to 64	2 to 4	2 to 4	2 to 4	32 to 64	0.5 to 1	32 to 64	> 128
CCN1CCN(C(=O)NC(C(=O)N[C@H]2Cc3ccc(F)c(C(=O)O)c3OB2O)c2ncc(O)cc2Cl)C(=O)C1=O (stereo partly drawn) [Example 151, (3R)-3-(2-(3-chloro-5-hydroxypyridin-2-yl)-2-(4-ethyl-2,3-dioxopiperazine-1-carboxamido)acetamido)-7-fluoro-2-hydroxy-3,4-dihydro-2H-benzo[e][1,2]oxaborinine-8-carboxylic acid]	> 128	0.25 to 0.5 (≈ 0.433 to 0.865 µM)	32 to 64	8 to 16	8 to 16	8 to 16	< 0.25	32 to 64	0.5 to 1	> 128	> 128
CCN1CCN(C(=O)N[C@@H](C(=O)N[C@H]2Cc3ccc(F)c(C(=O)O)c3OB2O)c2ccc(O)c(F)c2)C(=O)C1=O [Example 161, (R)-3-((R)-2-(4-ethyl-2,3-dioxopiperazine-1-carboxamido)-2-(3-fluoro-4-hydroxyphenyl)acetamido)-7-fluoro-2-hydroxy-3,4-dihydro-2H-benzo[e][1,2]oxaborinine-8-carboxylic acid]	> 128	< 0.125	> 128	8 to 16	32 to 64	2 to 4	< 0.25	32 to 64	0.5 to 1	> 128	> 128
CCN1CCN(C(=O)N[C@@H](C(=O)N[C@H]2Cc3cccc(C(=O)O)c3OB2O)c2ncc(O)cc2F)C(=O)C1=O [Example 177, (R)-3-((R)-2-(4-ethyl-2,3-dioxopiperazine-1-carboxamido)-2-(3-fluoro-5-hydroxypyridin-2-yl)acetamido)-2-hydroxy-3,4-dihydro-2H-benzo[e][1,2]oxaborinine-8-carboxylic acid]	> 128	< 0.125	32 to 64	2 to 4	0.5 to 1	0.5 to 1	0.5 to 1	8 to 16	< 0.25	8 to 16	> 128
CCN1CCN(C(=O)NC(C(=O)N[C@H]2Cc3ccc(F)c(C(=O)O)c3OB2O)c2ccc(S(N)(=O)=O)cc2)C(=O)C1=O (stereo partly drawn) [Example 181, (3R)-3-(2-(4-ethyl-2,3-dioxopiperazine-1-carboxamido)-2-(4-sulfamoylphenyl)acetamido)-7-fluoro-2-hydroxy-3,4-dihydro-2H-benzo[e][1,2]oxaborinine-8-carboxylic acid]	> 128	1 to 2 (≈ 1.65 to 3.3 µM)	> 128	8 to 16	32 to 64	8 to 16	0.5 to 1	32 to 64	0.5 to 1	> 128	> 128
NS(=O)(=O)c1ccc(C(NC(=O)N2CCN(CCF)C(=O)C2=O)C(=O)N[C@H]2Cc3ccc(F)c(C(=O)O)c3OB2O)cc1 (stereo partly drawn) [Example 182, (3R)-7-fluoro-3-(2-(4-(2-fluoroethyl)-2,3-dioxopiperazine-1-carboxamido)-2-(4-sulfamoylphenyl)acetamido)-2-hydroxy-3,4-dihydro-2H-benzo[e][1,2]oxaborinine-8-carboxylic acid]	> 128	1 to 2 (≈ 1.6 to 3.21 µM)	> 128	8 to 16	32 to 64	2 to 4	0.5 to 1	32 to 64	0.5 to 1	> 128	> 128
O=C(O)c1c(F)ccc2c1OB(O)[C@@H](NC(=O)C(NC(=O)N1CCN(CCF)C(=O)C1=O)c1ncc(O)cc1F)C2 (stereo partly drawn) [Example 183, (3R)-7-fluoro-3-(2-(3-fluoro-5-hydroxypyridin-2-yl)-2-(4-(2-fluoroethyl)-2,3-dioxopiperazine-1-carboxamido)acetamido)-2-hydroxy-3,4-dihydro-2H-benzo[e][1,2]oxaborinine-8-carboxylic acid]	> 128	0.25 to 0.5 (≈ 0.432 to 0.863 µM)	32 to 64	32 to 64	2 to 4	2 to 4	< 0.25	8 to 16	< 0.25	32 to 64	> 128
CCN1CCN(C(=O)N[C@H](C(=O)N[C@H]2Cc3ccc(F)c(C(=O)O)c3OB2O)c2ccc(O)c(O)c2Cl)C(=O)C1=O [Example 188, (R)-3-((S)-2-(2-chloro-3,4-dihydroxyphenyl)-2-(4-ethyl-2,3-dioxopiperazine-1-carboxamido)acetamido)-7-fluoro-2-hydroxy-3,4-dihydro-2H-benzo[e][1,2]oxaborinine-8-carboxylic acid]	32 to 64	4 to 8 (≈ 6.75 to 13.5 µM)	32 to 64	0.5 to 1	8 to 16	8 to 16	0.5 to 1	> 128	2 to 4	32 to 64	8 to 16
